According to paper PMC8237303 (Heliyon, 2021):

Assays:
[1] = tested on: Na Channel; format: binding; settings: 0.1 mM l-menthol; Rat whole brain
[2] = biological target: α2A-Adrenergic receptor (Human) (Homo sapiens, UniProt P08913); experiment: [3H]-Rauwolscine hydrochloride binding assay; settings: 0.1 mM l-menthol; Human recombinant
[3] = tested on: GABA A receptor (Benzodiazepine site); experiment: [3H]-Flunitrazepam binding assay; settings: 0.1 mM l-menthol; Rat whole brain
[4] = tested on: Glutamate receptor (NMDA phencycidine site); experiment: [3H]-; format: binding; settings: 0.1 mM l-menthol; Rat cerebral cortex
[5] = biological target: Muscarinic M2 receptor (Human) (Homo sapiens, UniProt P08172); experiment: [3H]-Scopolamine Methyl Chloride binding assay; settings: 0.1 mM l-menthol; Human recombinant
[6] = biological target: Opiate δ receptor (Human) (Homo sapiens, UniProt P41143); experiment: [3H]-Naltrindole binding assay; settings: 0.1 mM l-menthol; Human recombinant
[7] = biological target: Ca Channel (Type N) (Rattus norvegicus, UniProt Q02294); format: binding
[8] = biological target: CCK A receptor (Human) (Homo sapiens, UniProt P32238); experiment: [125I]-Cholecystokinin Octapeptide binding assay; settings: 0.1 mM l-menthol; Human recombinant
[9] = biological target: Dopamine D2 receptor short isoform (Human) (Homo sapiens, UniProt P14416); experiment: [3H]-Spiperone binding assay; settings: 0.1 mM l-menthol; Human recombinant
[10] = biological target: Dopamine D5 receptor (Human) (Homo sapiens, UniProt P21918); experiment: [3H]SCH 23390 binding assay; settings: 0.1 mM l-menthol; Human recombinant
[11] = biological target: Endothelin ETA receptor (Human) (Homo sapiens, UniProt P25101); experiment: [125I]-Endothelin-1; format: binding; settings: 0.1 mM l-menthol; Human recombinant
[12] = biological target: Vasopressin V1 receptor (Rattus norvegicus, UniProt P30560); experiment: [3H]-Vasopressin, 8-L-Arginine binding assay; settings: 0.1 mM l-menthol; Rat liver
Vasopressin V1 receptor, sequence (P30560 whole entry): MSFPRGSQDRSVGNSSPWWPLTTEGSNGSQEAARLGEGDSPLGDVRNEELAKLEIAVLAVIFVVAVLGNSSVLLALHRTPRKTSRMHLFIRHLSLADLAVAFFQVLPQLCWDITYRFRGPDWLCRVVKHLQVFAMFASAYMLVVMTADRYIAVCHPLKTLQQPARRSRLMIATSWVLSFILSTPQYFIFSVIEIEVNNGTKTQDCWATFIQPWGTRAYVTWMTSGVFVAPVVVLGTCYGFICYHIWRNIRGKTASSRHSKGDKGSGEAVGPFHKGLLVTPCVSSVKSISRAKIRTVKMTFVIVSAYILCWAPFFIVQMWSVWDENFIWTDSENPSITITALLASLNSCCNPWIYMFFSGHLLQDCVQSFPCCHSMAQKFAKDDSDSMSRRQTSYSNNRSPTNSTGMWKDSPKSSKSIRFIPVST

Ca Channel (Type N), sequence (Q02294 whole entry): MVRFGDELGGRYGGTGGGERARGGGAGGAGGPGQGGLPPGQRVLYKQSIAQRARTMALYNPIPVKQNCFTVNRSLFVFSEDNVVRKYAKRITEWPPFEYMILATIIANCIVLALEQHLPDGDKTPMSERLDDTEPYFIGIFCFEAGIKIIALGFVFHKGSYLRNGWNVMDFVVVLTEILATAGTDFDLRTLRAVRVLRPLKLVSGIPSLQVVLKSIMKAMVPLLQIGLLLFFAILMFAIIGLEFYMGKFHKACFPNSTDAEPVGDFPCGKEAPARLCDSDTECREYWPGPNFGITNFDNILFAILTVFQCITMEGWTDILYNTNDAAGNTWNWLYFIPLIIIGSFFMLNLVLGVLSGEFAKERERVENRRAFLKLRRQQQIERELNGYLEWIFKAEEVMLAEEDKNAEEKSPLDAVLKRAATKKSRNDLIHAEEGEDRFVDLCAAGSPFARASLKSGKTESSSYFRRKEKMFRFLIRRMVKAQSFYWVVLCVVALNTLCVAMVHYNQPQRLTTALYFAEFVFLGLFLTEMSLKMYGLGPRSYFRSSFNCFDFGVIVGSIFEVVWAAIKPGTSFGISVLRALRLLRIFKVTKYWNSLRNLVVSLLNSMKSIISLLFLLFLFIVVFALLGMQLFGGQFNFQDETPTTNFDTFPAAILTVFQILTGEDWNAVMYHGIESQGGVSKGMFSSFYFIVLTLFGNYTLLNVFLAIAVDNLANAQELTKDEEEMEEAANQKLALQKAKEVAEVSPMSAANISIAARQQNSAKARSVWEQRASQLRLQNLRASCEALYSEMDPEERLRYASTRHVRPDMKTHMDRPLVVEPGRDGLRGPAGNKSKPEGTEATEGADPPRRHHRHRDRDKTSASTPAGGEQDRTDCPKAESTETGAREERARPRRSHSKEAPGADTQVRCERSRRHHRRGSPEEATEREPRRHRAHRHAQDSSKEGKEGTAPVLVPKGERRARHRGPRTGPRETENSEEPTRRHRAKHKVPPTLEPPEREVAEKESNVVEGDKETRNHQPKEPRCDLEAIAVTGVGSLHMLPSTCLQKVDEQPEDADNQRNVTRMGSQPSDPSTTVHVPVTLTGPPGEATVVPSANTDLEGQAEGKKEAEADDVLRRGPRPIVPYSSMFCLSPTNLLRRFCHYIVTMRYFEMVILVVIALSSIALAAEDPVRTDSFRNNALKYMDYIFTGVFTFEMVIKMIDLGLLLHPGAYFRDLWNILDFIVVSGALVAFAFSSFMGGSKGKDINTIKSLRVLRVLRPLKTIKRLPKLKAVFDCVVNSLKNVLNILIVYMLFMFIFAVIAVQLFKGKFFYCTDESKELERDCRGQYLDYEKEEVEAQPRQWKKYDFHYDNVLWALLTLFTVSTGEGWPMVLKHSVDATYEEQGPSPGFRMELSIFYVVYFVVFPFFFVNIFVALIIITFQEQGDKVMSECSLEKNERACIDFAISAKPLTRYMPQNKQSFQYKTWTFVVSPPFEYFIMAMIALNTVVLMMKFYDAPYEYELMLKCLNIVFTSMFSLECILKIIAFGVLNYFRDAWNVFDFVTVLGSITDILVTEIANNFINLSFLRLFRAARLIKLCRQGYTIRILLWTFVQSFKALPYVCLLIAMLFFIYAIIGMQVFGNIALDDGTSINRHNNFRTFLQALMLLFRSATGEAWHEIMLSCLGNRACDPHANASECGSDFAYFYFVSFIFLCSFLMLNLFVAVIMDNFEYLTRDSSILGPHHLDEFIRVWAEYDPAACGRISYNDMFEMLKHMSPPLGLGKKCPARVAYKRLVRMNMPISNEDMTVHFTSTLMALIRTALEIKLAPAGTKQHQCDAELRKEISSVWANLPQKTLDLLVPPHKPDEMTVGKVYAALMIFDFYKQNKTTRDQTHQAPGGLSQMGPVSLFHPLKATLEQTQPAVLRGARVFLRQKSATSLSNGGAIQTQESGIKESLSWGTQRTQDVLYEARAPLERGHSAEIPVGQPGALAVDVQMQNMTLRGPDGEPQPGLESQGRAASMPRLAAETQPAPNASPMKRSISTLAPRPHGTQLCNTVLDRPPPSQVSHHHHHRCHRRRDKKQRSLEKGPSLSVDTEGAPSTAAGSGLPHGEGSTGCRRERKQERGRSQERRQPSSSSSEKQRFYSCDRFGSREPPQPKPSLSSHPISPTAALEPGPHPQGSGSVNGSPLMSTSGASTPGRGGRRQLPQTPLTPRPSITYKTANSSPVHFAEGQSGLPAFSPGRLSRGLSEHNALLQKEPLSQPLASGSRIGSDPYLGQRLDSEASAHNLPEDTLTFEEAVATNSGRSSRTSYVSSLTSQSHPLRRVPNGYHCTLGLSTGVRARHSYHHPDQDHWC
CCK A receptor (Human), sequence (P32238 whole entry, canonical isoform): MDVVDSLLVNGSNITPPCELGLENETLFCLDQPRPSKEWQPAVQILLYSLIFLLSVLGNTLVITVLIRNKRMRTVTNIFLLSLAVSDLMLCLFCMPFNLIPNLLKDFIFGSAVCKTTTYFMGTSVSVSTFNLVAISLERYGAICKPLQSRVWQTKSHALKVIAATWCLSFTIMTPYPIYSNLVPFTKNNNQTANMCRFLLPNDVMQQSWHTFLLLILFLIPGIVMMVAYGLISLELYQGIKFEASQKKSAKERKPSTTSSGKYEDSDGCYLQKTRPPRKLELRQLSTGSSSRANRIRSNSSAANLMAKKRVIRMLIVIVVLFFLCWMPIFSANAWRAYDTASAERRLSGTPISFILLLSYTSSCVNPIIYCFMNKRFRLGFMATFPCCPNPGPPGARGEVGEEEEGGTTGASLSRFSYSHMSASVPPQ
Opiate δ receptor (Human), sequence (P41143 whole entry): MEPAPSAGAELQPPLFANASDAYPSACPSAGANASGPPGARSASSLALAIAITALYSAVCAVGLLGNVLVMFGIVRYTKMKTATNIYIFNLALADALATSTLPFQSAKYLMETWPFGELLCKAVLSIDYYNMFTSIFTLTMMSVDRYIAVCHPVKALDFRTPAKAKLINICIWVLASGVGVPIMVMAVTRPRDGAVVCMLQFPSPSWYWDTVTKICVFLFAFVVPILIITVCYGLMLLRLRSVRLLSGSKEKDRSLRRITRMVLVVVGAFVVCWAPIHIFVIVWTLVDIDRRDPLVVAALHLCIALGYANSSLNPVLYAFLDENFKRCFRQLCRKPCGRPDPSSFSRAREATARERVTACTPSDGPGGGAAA
Dopamine D5 receptor (Human), sequence (P21918 whole entry): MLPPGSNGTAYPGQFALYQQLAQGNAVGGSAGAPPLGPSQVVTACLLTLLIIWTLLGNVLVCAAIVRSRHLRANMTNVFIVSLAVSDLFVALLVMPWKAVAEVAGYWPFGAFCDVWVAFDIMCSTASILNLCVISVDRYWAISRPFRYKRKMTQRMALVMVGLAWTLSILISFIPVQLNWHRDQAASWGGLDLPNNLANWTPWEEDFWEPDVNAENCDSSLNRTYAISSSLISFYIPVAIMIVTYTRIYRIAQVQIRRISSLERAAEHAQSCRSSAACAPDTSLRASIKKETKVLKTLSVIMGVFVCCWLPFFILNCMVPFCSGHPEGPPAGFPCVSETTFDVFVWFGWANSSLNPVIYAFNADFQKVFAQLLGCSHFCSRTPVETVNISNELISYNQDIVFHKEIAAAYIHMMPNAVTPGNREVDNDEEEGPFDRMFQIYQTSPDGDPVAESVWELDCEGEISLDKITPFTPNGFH
Dopamine D2 receptor short isoform (Human), sequence (P14416 1-414 isoform P14416-2): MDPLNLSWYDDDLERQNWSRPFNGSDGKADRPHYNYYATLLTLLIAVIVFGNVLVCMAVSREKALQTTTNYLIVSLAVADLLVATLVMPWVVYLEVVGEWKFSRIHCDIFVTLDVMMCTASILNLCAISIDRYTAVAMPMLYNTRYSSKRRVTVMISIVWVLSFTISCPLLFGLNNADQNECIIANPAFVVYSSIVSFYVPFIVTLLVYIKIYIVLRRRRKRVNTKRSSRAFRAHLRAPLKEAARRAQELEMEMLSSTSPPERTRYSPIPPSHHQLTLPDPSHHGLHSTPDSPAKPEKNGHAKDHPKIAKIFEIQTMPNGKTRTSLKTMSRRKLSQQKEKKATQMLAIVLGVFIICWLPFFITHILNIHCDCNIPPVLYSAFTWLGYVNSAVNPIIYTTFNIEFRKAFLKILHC
α2A-Adrenergic receptor (Human), sequence (P08913 whole entry): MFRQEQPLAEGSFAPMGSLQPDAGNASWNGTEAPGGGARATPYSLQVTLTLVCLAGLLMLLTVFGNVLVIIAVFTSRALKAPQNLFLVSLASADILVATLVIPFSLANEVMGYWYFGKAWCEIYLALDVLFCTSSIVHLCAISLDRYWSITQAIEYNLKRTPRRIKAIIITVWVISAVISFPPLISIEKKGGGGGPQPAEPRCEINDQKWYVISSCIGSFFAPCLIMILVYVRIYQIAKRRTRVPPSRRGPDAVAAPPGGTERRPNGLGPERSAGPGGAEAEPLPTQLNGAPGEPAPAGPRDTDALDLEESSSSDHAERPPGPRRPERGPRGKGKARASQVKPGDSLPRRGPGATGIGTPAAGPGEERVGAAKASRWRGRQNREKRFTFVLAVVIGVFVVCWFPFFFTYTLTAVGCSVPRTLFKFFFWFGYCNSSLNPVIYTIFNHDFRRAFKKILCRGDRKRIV

CC(C)[C@@H]1CC[C@@H](C)C[C@H]1O [l-menthol]
Inhibition by l-Menthol (%) [1]: 14.04%
Inhibition by l-Menthol (%) [2]: 11.34%
Inhibition by l-Menthol (%) [3]: 1.37%
Inhibition by l-Menthol (%) [4]: 1.27%
Inhibition by l-Menthol (%) [5]: 0.37%
Inhibition by l-Menthol (%) [6]: 0.3%
Inhibition by l-Menthol (%) [7]: 0%
Inhibition by l-Menthol (%) [8]: 0%
Inhibition by l-Menthol (%) [9]: 0%
Inhibition by l-Menthol (%) [10]: 0%
Inhibition by l-Menthol (%) [11]: 0%
Inhibition by l-Menthol (%) [12]: 0%
